From patent publication US20020055528A1, “Artemisinin analogs having antimalarial, antiproliferative, and antitumor activities and chemoselective methods of making the same” (priority 1999, published 2002)
Entries after “also recorded” stand apart in the source; their conditions may differ.

Tests used:
Assay type in all cases: cell-based
[1] = test system: OVCAR-5; test: NCI 60 cell line screen (SRB), Ovarian Cancer; details: for Log10TGI: PG=0
[2] = test system: IGROVI; test: NCI 60 cell line screen (SRB), Ovarian Cancer; details: for Log10TGI: PG=0
[3] = test system: SF-268; test: NCI 60 cell line screen (SRB), CNS Cancer
[4] = test system: SK-OV-3; test: NCI 60 cell line screen (SRB), Ovarian Cancer
[5] = test system: UACC-257; test: NCI 60 cell line screen (SRB), Melanoma; details: for Log10TGI: PG=0
[6] = test system: COLO 205; test: NCI 60 cell line screen (SRB), Colon Cancer
[7] = test system: SF-295; test: NCI 60 cell line screen (SRB), CNS Cancer
[8] = test system: NCI-H522; test: NCI 60 cell line screen (SRB), Non-Small Cell Lung Cancer; details: for Log10TGI: PG=0
[9] = test system: HL-60(TB); test: NCI 60 cell line screen (SRB), Leukemia; details: for Log10TGI: PG=0
[10] = test system: K-562; test: NCI 60 cell line screen (SRB), Leukemia; details: for Log10TGI: PG=0
[11] = test system: MDA-MB231/ATCC; test: NCI 60 cell line screen (SRB), Breast Cancer; details: MDA- (first line of MDA-MB231/ATCC); for Log10TGI: PG=0
[12] = test system: LOX IMVI; test: NCI 60 cell line screen (SRB), Melanoma; details: for Log10TGI: PG=0
[13] = test system: SNB-75; test: NCI 60 cell line screen (SRB), CNS Cancer
[14] = test system: 60 cell line panel; test: NCI 60 cell line screen (SRB), whole panel
Method: The screening assay is performed on 96-well microtitre plates. Relatively high initial inoculation densities are used, in order to permit measurement of “time-zero” values and to enhance the screen's ability to detect and provide some differentiation between antiproliferative and cytotoxic response parameters. […] The inoculated microtitre plates are pre-incubated for 24 hours at 37θC prior to drug additions. The five drug dilutions tested routinely range from 10^−4 to 10^−8 molar. Higher or lower concentration ranges may be selected on a nonroutine basis if appropriate solubility and/or prior biological information or other screening data so dictate. Duplicate wells are prepared for all concentrations, (concentration is often denoted by placing brackets around a number); “time-zero” and “no drug” controls are also provided for each test. The minimum amount of compound required for a one-time evaluation in the routine screen can be calculated from the knowledge that each test requires a total of approximately 40 ml (0.04 liter) of cell culture medium containing the highest desired drug concentration. Thus, the amount (grams) of sample required (assuming an upper test concentration limit of 10^−4 M) is: molecular weight of compound×[…]. After a 48 hour incubation (37θC) with the test compound, the cells are fixed in situ to the bottoms of the microtitre wells by addition of 50 ul of either 50% trichloroacetic acid (for adherent cell lines) or 80% trichloroacetic acid (for settled cell suspension lines), followed by incubation for 60 minutes at 4θC. The cellular protein in each well is assayed using a sulforhodamine B (SRB) stain procedure. Briefly, after discarding the supernatants, the microtitre plates are washed 5 times with deionized water and air-dried. One hundred microliters of SRB solution (0.4% w/v in 1% acetic acid) is added to each microtitre well and incubated for 10 minutes at room temperature. Unbound SRB is removed by washing 5 times with 1 % acetic acid. The plates are air-dried, the bound stain is solubilized with Tris buffer, and the optical densities read at 515 nm. SRB is a bright pink anionic dye which, in dilute acetic acid, binds electrostatically to the basic amino acids of TCA-fixed cells. Cryopreserved master stocks of all the lines are maintained, and cultures used for screening are replaced from the master stock after no more than twenty passages in the screening laboratory. The cell line panel consists of 60 lines, organized into nine, disease-related subpanels including leukemia, non-small-cell lung cancer, colon, CNS, melanoma, ovarian, renal, prostate and breast cancers.
The response parameters G150 and LC50 are interpolated values representing the concentrations at which the percentage growth (PG) is +50 and −50, respectively:
GI50 is the concentration for which the PG=+50. At this value the increase from time tzero, in the number or mass of cells in the test well is only 50% as much as the corresponding increase in the control well during this period of the experiment, see Table II. A drug effect of this intensity is interpreted as primary growth inhibition.
TGI is the concentration for which PG=0. At this value the number or mass of cells in the well at the end of the experiment equals the number or mass of cells in the well at time tzero, see Table III. A drug effect of this intensity is regarded as cytostasis.
LC50 is the concentration for which the PG=−50. At this value, the number or mass of cells in the test well at the end of the experiment is half that at time tzero, see Table IV. This is interpreted as cytotoxicity.

[15] = test system: NCI-H322M; test: NCI 60 cell line screen (SRB), Non-Small Cell Lung Cancer; details: for Log10GI50: PG=+50
[16] = test system: HCT-116; test: NCI 60 cell line screen (SRB), Colon Cancer; details: for Log10TGI: PG=0
[17] = test system: HCC-2998; test: NCI 60 cell line screen (SRB), Colon Cancer
[18] = test system: SK-MEL2; test: NCI 60 cell line screen (SRB), Melanoma

`CC1=C(C=Cc2cccc(C=CC3=C(C)C4CCC(C)C5CCC6(C)OOC45C(O3)O6)c2)OC2OC3(C)CCC4C(C)CCC1C24OO3` (stereo not shown) [VII-g] gave a Log10TGI [1] of over −4.00 log10M, a Log10GI50 ([1]; PG=+50) of −6.58 log10M and a Log10GI50 ([1]; Table IV (LC50, PG=−50)) of over −4.00 log10M. The Log10TGI [2] was −4.21 log10M, the Log10GI50 ([2]; PG=+50) was −5.16 log10M and the Log10GI50 ([2]; Table IV (LC50, PG=−50)) was over −4.00 log10M. It also gave a Log10TGI ([3]; PG=0) of over −4.00 log10M, a Log10GI50 ([3]; PG=+50) of −6.42 log10M and a Log10TGI ([4]; PG=0) of over −4.00 log10M. The Log10GI50 ([4]; PG=+50) was −5.05 log10M, the Log10GI50 ([4]; Table IV (LC50, PG=−50)) was over −4.00 log10M and the Log10TGI [5] was −4.58 log10M. The “Log10 GI50 (PG=+50) or Log10 LC50 (PG=−50)” value ([5]; PG=+50) was −7.09 log10M, the “Log10 GI50 (PG=+50) or Log10 LC50 (PG=−50)” value ([5]; Table IV (LC50, PG=−50)) was over −4.00 log10M and the Log10TGI ([6]; PG=0) was −6.82 log10M. The Log10GI50 ([6]; PG=+50) was −7.50 log10M, the Log10GI50 ([6]; Table IV (LC50, PG=−50)) was −4.96 log10M and the Log10TGI ([7]; PG=0) was over −4.00 log10M. For the same molecule, the Log10GI50 ([7]; PG=+50) was −6.48 log10M, the Log10TGI [8] was over −4.00 log10M and the Log10GI50 ([8]; PG=+50) was −6.99 log10M. It also gave a Log10GI50 ([8]; Table IV (LC50, PG=−50)) of over −4.00 log10M, a Log10TGI [9] of −7.20 log10M and a Log10GI50 ([9]; PG=+50) of −7.20 log10M. The Log10GI50 ([9]; Table IV (LC50, PG=−50)) was over −4.00 log10M, the Log10TGI [10] was −7.31 log10M and the Log10GI50 ([10]; PG=+50) was −7.31 log10M. For the same molecule, the Log10GI50 ([10]; Table IV (LC50, PG=−50)) was over −4.00 log10M, the Log10TGI [11] was −4.74 log10M and the “Log10 GI50 or LC50 (per conditions)” value ([11]; PG=+50) was −6.07 log10M. The “Log10 GI50 or LC50 (per conditions)” value ([11]; Table IV (LC50, PG=−50)) was over −4.00 log10M, the Log10TGI [12] was −5.06 log10M and the Log10GI50 ([12]; PG=+50) was −7.07 log10M. For the same molecule, the Log10GI50 ([12]; Table IV (LC50, PG=−50)) was over −4.00 log10M, the “Log10 GI50 (PG=+50) or LC50 (PG=−50)” value ([13]; PG=+50) was −6.45 log10M and the “Log10 GI50 (PG=+50) or LC50 (PG=−50)” value ([13]; Table IV (LC50, PG=−50)) was over −4.00 log10M. For the same molecule, the “MG MID of Log10GI50 (Table IV)” value ([14]; Table IV (LC50), mean over the panel) was −4.02 log10M, the “Delta of Log10GI50 (Table IV)” value ([14]; Table IV (LC50), panel summary) was 0.94 and the “Range of Log10GI50 (Table IV)” value ([14]; Table IV (LC50), panel summary) was 0.96. For the same molecule, the “potency in words, compared with artemisinin and paclitaxel” value ([14]; Tables II, III and IV) was “in most instances are as potent and in some instances more potent than paclitaxel; also recorded: more potent than artemisinin and equivalent to and in many instances higher in potency than paclitaxel”, the “MG MID of Log10GI50” value ([14]; mean over the panel) was −6.58 log10M and the “MG MID of Log10TGI” value ([14]; mean over the panel) was −4.32 log10M. The “Delta of Log10GI50” value ([14]; panel summary) was 0.93, the “Delta of Log10TGI” value ([14]; panel summary) was 2.51 and the “Range of Log10GI50” value ([14]; panel summary) was 2.60. For the same molecule, the “Range of Log10TGI” value ([14]; panel summary) was 2.82, the Log10TGI ([15]; PG=0) was −4.87 log10M and the Log10GI50 [15] was −7.42 log10M. For the same molecule, the Log10TGI [16] was over −4.00 log10M, the “Log10 GI50 (PG=+50) or Log10 LC50 (PG=−50), as given per row condition” value ([16]; PG=+50) was −7.13 log10M and the “Log10 GI50 (PG=+50) or Log10 LC50 (PG=−50), as given per row condition” value ([16]; Table IV (LC50, PG=−50)) was over −4.00 log10M. It also gave a Log10TGI ([17]; PG=0) of over −4.00 log10M, a Log10GI50 ([17]; PG=+50) of −6.12 log10M and a Log10TGI ([18]; PG=0) of over −4.00 log10M. For the same molecule, the “Log10 GI50 or LC50 (per conditions)” value ([18]; PG=+50) was −6.39 log10M and the “Log10 GI50 or LC50 (per conditions)” value ([18]; Table IV (LC50, PG=−50)) was over −4.00 log10M.
`CC(=O)O[C@H]1C(=O)[C@@]2(C)[C@H]([C@H](OC(=O)c3ccccc3)[C@]3(O)C[C@H](OC(=O)[C@H](O)[C@@H](NC(=O)c4ccccc4)c4ccccc4)C(C)=C1C3(C)C)[C@]1(OC(C)=O)CO[C@@H]1C[C@@H]2O` [Paclitaxel, paclitaxel, reference compound] gave a Log10TGI [1] of −4.92 log10M, a Log10GI50 ([1]; PG=+50) of −9.38 log10M and a Log10GI50 ([1]; Table IV (LC50, PG=−50)) of over −4.00 log10M. For the same molecule, the Log10TGI [2] was −4.19 log10M, the Log10GI50 ([2]; PG=+50) was −8.61 log10M and the Log10GI50 ([2]; Table IV (LC50, PG=−50)) was over −4.00 log10M. The Log10TGI [5] was −4.52 log10M, the Log10GI50 ([6]; PG=+50) was −11.07 log10M and the Log10GI50 ([6]; Table IV (LC50, PG=−50)) was over −4.41 log10M. For the same molecule, the Log10TGI [8] was −4.92 log10M, the Log10GI50 ([8]; PG=+50) was under −13.00 log10M and the Log10GI50 ([8]; Table IV (LC50, PG=−50)) was over −4.00 log10M. It also gave a Log10TGI [9] of −11.57 log10M, a Log10GI50 ([9]; PG=+50) of −11.57 log10M and a Log10GI50 ([9]; Table IV (LC50, PG=−50)) of over −4.53 log10M. For the same molecule, the Log10TGI [10] was −10.83 log10M, the Log10GI50 ([10]; PG=+50) was −10.83 log10M and the Log10GI50 ([10]; Table IV (LC50, PG=−50)) was over −4.00 log10M. It also gave a Log10TGI [11] of −4.84 log10M, a Log10TGI [12] of −4.65 log10M and a Log10GI50 ([12]; PG=+50) of −11.80 log10M. The Log10GI50 ([12]; Table IV (LC50, PG=−50)) was −4.15 log10M, the “Range of Log10GI50 (Table IV)” value ([14]; Table IV (LC50), panel summary) was 4.06 and the “Delta of Log10GI50” value ([14]; panel summary) was −10.15. The “Delta of Log10TGI” value ([14]; panel summary) was −4.54, the “Range of Log10GI50” value ([14]; panel summary) was 8.00 and the “Range of Log10TGI” value ([14]; panel summary) was 7.20. The Log10GI50 [15] was −10.12 log10M and the Log10TGI [16] was −4.82 log10M.
